According to patent publication US11366104B2, “Methods of identifying and monitoring mitochondrial dysfunction using monocyte screening” (Stealth BioTherapeutics Inc., priority 2014, dated 2022):

Assays:
[1] = system: several mammalian cell types; conditions: energy-independent manner; Zhao et al., J. Pharmacol Exp Ther., 304:425-432, 2003; cited from earlier work
[2] = system: Monocytes from Normal Dogs; assay: Oxygen consumption rate (XF analyzer) in isolated monocytes incubated with peptide, normal dogs; type: cell-based, dog; conditions: for MAXresp (maximal respiration) / Proton Leak / SRC (spare respiratory capacity): monocytes from normal dogs
Procedure: (§1) Peripheral blood samples were obtained from 6 normal dogs and 6 dogs with coronary microembolizations-induced heart failure (LV ejection fraction ˜30%). Monocytes were isolated from the peripheral blood samples via sequential Ficoll and Percoll density gradients. Monocyte viability, assayed using Trypan blue exclusion, was ˜70%. An XFc/XF96 analyzer (Scahorsc Bioscience) was used to measure oxygen consumption rates (OCR) in monocytes in the presence and absence of 1 μM oligomycin, 0.5 μM FCCP, or 1 μM each rotenone and antimycin. Mitochondrial proton leak, maximal respiration (MAXresp) and spare respiratory capacity (SRC) were measured in the presence and absence of 0.1, 1.0 and 10 μM concentrations of D-Arg-2′6′Dmt-Lys-Phe-NH2. Results were expressed in pmols OCR/min/μg protein.

[3] = system: Monocytes from Heart Failure Dogs; assay: Oxygen consumption rate (XF analyzer) in isolated monocytes incubated with peptide, heart failure dogs; type: cell-based, dog; conditions: for MAXresp (maximal respiration) / Proton Leak / SRC (spare respiratory capacity): monocytes from heart failure dogs
Procedure: as §1

[4] = heart failure dogs, 0.1, 1.0 and 10 μM

2′,6′-Dmt-D-Arg-Phe-Lys-NH2
penetration of the plasma membrane [1]: readily penetrates the plasma membrane

D-Arg-2′6′Dmt-Lys-Phe-NH2
MAXresp (maximal respiration) ([2]; peptide concentration 0.1 μM): 11.1 pmols OCR/min/μg protein
Proton Leak ([2]; peptide concentration 0.1 μM): 0.54 pmols OCR/min/μg protein
SRC (spare respiratory capacity) ([2]; peptide concentration 0.1 μM): 6.35 pmols OCR/min/μg protein
MAXresp (maximal respiration) ([2]; peptide concentration 1.0 μM): 12.1 pmols OCR/min/μg protein
Proton Leak ([2]; peptide concentration 1.0 μM): 0.47 pmols OCR/min/μg protein
SRC (spare respiratory capacity) ([2]; peptide concentration 1.0 μM): 7.04 pmols OCR/min/μg protein
MAXresp (maximal respiration) ([2]; peptide concentration 10 μM): 12.1 pmols OCR/min/μg protein
Proton Leak ([2]; peptide concentration 10 μM): 0.48 pmols OCR/min/μg protein
SRC (spare respiratory capacity) ([2]; peptide concentration 10 μM): 7.04 pmols OCR/min/μg protein
effect on measures of monocyte mitochondrial function ([2]; normal dogs, incubation with 0.1, 1.0 and 10 μM): no effect
change in MAXresp with concentration [3, 4]: dose-dependent increase
change in SRC with concentration [3, 4]: dose-dependent increase
change in proton leak with concentration [3, 4]: dose-dependent decrease
monocyte mitochondrial function ([3]; heart failure dogs, after treatment with 0.1, 1.0 and 10 μM): nearly normalized/restored
MAXresp (maximal respiration) ([3]; peptide concentration 0.1 μM): 6.3 pmols OCR/min/μg protein
Proton Leak ([3]; peptide concentration 0.1 μM): 1.55 pmols OCR/min/μg protein
SRC (spare respiratory capacity) ([3]; peptide concentration 0.1 μM): 1.95 pmols OCR/min/μg protein
MAXresp (maximal respiration) ([3]; peptide concentration 1.0 μM): 8.3 pmols OCR/min/μg protein
Proton Leak ([3]; peptide concentration 1.0 μM): 0.94 pmols OCR/min/μg protein
SRC (spare respiratory capacity) ([3]; peptide concentration 1.0 μM): 3.64 pmols OCR/min/μg protein
MAXresp (maximal respiration) ([3]; peptide concentration 10 μM): 9.4 pmols OCR/min/μg protein
Proton Leak ([3]; peptide concentration 10 μM): 0.77 pmols OCR/min/μg protein
SRC (spare respiratory capacity) ([3]; peptide concentration 10 μM): 4.51 pmols OCR/min/μg protein
